The values that follow are results of earlier work, collected in US6306435A, “Oral pharmaceutical preparation embedded in an oily matrix and methods of making the same” (Yung Shin Pharmaceutical Industrial Co. Ltd., priority 2000, dated 2001).

Assay in data set [1]: not given
The source holds these as a separate data set.

Like-named read-outs stand apart in the source and are kept apart here.

`COc1ccc2[nH]c([S+]([O-])Cc3ncc(C)c(OC)c3C)nc2c1` (centres unmarked) [Omeprazole]: where the note is “conventional oral dosage form”, the “degradation before reaching the small intestine” value is recorded as “more than half”. In addition, the “effect of moisture, organic solvents and acidic substances on stability” value (moisture, organic solvents and acidic substances) is “deleterious effect”. Also, the half-life of degradation was 18 h (pH 6.5); “about 300 days” (pH 11); “less than 10 minutes” (water solutions, pH-values below 4). Further, in data set [1] (alkaline solutions, as negatively charged ion), the “solubility in alkaline solutions” value is on record as “very soluble”. Further, the “pKa (pyridinium)” value in data set [1] (pyridinium) was ~ 4. For the same compound, in data set [1] (water), the solubility in water entry is recorded as “very slightly soluble”.
